Tests used:
HL60 MDR cells [1] = assay: microscopy images of HL60 MDR cells treated with cerulenin; assay type: cell-based, human; conditions: FIGS. 4E and 4F
Excerpt: (§1) In FIG. 4, microscopy images of HL60 and HL60 MDR (“multi-drug resistant”) cells treated with cerulenin (“Treated”) and not treated with cerulenin (“No Stn”) are shown.

B16F1 melanoma cells [2] = assay: B16F1 melanoma cells exposed to cerulenin, then injected into male mice; assay type: in vivo
Description: Highly carcinogenic B16F1 melanoma cells were either exposed (“treated”) or not exposed to cerulenin, then injected into male mice.
Day 0 @2:45 pm injected with B16F1 10^6 cells in PBS, Treatment w/25 ug/ml cerulenin 5.0 hrs
Day 0 injected w/B16F1 10^6 cells in PBS, Treatment w/25 ug/ml cerulenin 5.0 h
Day 0 @2:45 pm injected w/B16F1 (10^6 cells in PBS) Treatment w/25 ug/ml cerulenin 5 h

B16F1 melanoma cells [3] = assay: % death of B16F1 cells by flow cytometry; assay type: cell-based
Description: (§2) Statistical Analysis, Percents, and Geometric Mean Values Percents. Gating is a tool provided by Cell Quest software and allows for the analysis of a certain population of cells. Gating around both the live and dead cell populations gave a percent of the cell numbers that was in each population. After the gates were drawn, a percent value of dead cells was calculated by taking the number of dead cells divided by the number of total cells and multiplying by one hundred.
(§3) This example illustrates an embodiment of the invention, where multi-drug resistant cancer cells were exposed to compositions of the invention. Analysis of the cells was performed using flow cytometry. The flow cytometry experiments were performed as follows. The cells were harvested, counted, and resuspended as described above. For DNA staining, the cells were washed and resuspended in ice-cold PBS and fixed by the dropwise addition of 95% ethanol. The cells were then incubated for 30 minutes on ice, washed, and resuspended in PBS containing 1% formaldehyde and 0.01% Tween. The cells were incubated with 50 units of DNAse and washed with PBS containing 5% DNAse. The cells were then incubated with anti DNA Fab (166, kind gift of Dr. Susan Wallace, University of Vermont), then washed and stained with a fluorescein conjugated second step anti-mouse immunoglobulin. The cells were then washed and resuspended in PBS/3% BSA/1% formaldehyde. The cells were stained for intracellular H2O2 using 6-carboxy-2′,7′-dichlorodihydrofluorescein diacetate (DCF-DA, Molecular Probes, Eugene, Oreg.). The cells were incubated with 1 mM DCF-DA for 20 minutes, washed twice in PBS containing 5% fetal calf serum and analyzed using flow cytometry. The mitochondrial membrane potential was assessed using MitoTracker Red (CM-H2XROS, Molecular Probes, Eugene, Oreg.). The cells were resuspended in warm (37° C.) PBS containing a final concentration of 0.5 micromolar of dye. The cells were then incubated for 30 minutes, pelleted, and resuspended in prewarmed medium for analysis. The data was acquired on a Coulter Elite Epics or Excel flow cytometer (Coulter, Hialeah, Fla.) and analyzed with CellQuest software, (Becton Dickinson, San Jose, Calif.). […] Each sample population was classified for cell size (forward scatter) and complexity (side scatter), gated on a population of interest and evaluated using 40,000 cells. Each figure describing flow cytometric data represents one of at least four replicate experiments.
All cell lines in this example were cultured in RPMI 1640 culture medium. The medium was supplemented with 5% fetal bovine serum (“FBS”), 2 mM L-Glutamine, 500 units/mL pennicillin/500 micrograms/mL of streptomycin, 10 mM HEPES Buffer, 10^−5 M 2-mercaptoethanol (“2-ME”), 1 mM MEM Sodium Pyruvate, and 0.04 micrograms/mL of Gentamicin (All reagents from Gibco BRL). The cells were maintained at 37° C. in a humidified atmosphere under 5% CO2 in air using standard cell culture techniques known to those of ordinary skill in the art.
The flow cytometry experiments were performed as follows. Once the samples were prepared and transferred into flow cytometric tubes, the samples were analyzed on a Becton/Dickinson Flow Cytometer. For antibodies that were PE conjugated and for the MitoTracker Red experiments, a program for red-colored fluorochromes was utilized. […] Statistical analysis, percents, and geometric mean values percents were calculated as described above.

HL60 MDR cells [4] = assay: % death of HL60 MDR cells by flow cytometry; assay type: cell-based, human; conditions: for HL60 MDR % Death: Table 1, 25 ug/mL Cerulenin
Description: (§4) Dot plots as a function of live versus dead cells. The cells were cultured at a concentration of 0.5 to 1 million cells per ml. Cells were untreated or treated with etomoxir or 2-deoxy-D-glucose at a concentration of 2.5 mM at the indicated concentrations for either 24 or 48 hours. In additional experiments, under each of these culture conditions, the cells were cultured for 24 hours at which time point, polyclonal anti-UCP-2 was added at a 1:1000 dilution of stock provided by Alpha Diagnostics, San Antonio, Tex. Cells were harvested and analyzed by flow cytometry. Each dot on the dot plots of FIGS. 1, 3, 5, 7, 9, and 11 represents one cell. Five thousand cells were assessed for forward scatter (FS), as a function of cell size, versus side scatter (SS), as a function of cellular granularity. The upper ellipse represents live cells by these criterion and the lower ellipse in each dot plot represents the dead cells.
as §2, §3
All cell lines in this example were cultured in RPMI 1640 culture medium. The medium was supplemented with 5% fetal bovine serum (“FBS”), 2 mM L-Glutamine, 500 units/mL pennicillin/500 micrograms/mL of streptomycin, 10 mM HEPES Buffer, 10^−5 M 2-mercaptoethanol (“2-ME”), 1 mM MEM Sodium Pyruvate, and 0.04 micrograms/mL of Gentamicin (All reagents from Gibco BRL). The cells were maintained at 37° C. in a humidified atmosphere under 5% CO2 in air using standard cell culture techniques known to those of ordinary skill in the art. […]

L1210 cells = assay: % death of L1210 cells by flow cytometry; assay type: cell-based; conditions: Table 2; 25 ug/mL Cerulenin; 7.0 Hours
Description: as §2
(§5) This example illustrates an embodiment of the invention, where multi-drug resistant cancer cells were exposed to compositions of the invention. Analysis of the cells was performed using flow cytometry. The flow cytometry experiments were performed as follows. The cells were harvested, counted, and resuspended as described above. […] The cells were incubated with 1 mM DCF-DA for 20 minutes, washed twice in PBS containing 5% fetal calf serum and analyzed using flow cytometry. The mitochondrial membrane potential was assessed using MitoTracker Red (CM-H2XROS, Molecular Probes, Eugene, Oreg.). […] The data was acquired on a Coulter Elite Epics or Excel flow cytometer (Coulter, Hialeah, Fla.) and analyzed with CellQuest software, (Becton Dickinson, San Jose, Calif.). […] Each sample population was classified for cell size (forward scatter) and complexity (side scatter), gated on a population of interest and evaluated using 40,000 cells. […]

L1210 DDP cells = assay: % death of L1210 DDP cells by flow cytometry; assay type: cell-based; conditions: for L1210 DDP % Death: Table 2, 25 ug/mL Cerulenin
Description: as §2
as §5, with “above. For DNA staining, the cells were washed and resuspended in ice-cold PBS and fixed by the dropwise addition of 95% ethanol. The cells were then incubated for 30 minutes on ice, washed, and resuspended in PBS containing 1% formaldehyde and 0.01% Tween. The cells were incubated with 50 units of DNAse and washed with PBS containing 5% DNAse.” for “above.”
The flow cytometry experiments were performed as follows. Once the samples were prepared and transferred into flow cytometric tubes, the samples were analyzed on a Becton/Dickinson Flow Cytometer. […] Statistical analysis, percents, and geometric mean values percents were calculated as described above.

HL60 cells [5] = assay: % death of HL60 cells by flow cytometry; assay type: cell-based, human; conditions: Table 1, 25 ug/mL Cerulenin
Description: as §2, §5

HL60 cells [6] = assay: microscopy images of HL60 cells treated with cerulenin; assay type: cell-based, human; conditions: FIG. 4C
Excerpt: as §1

[7] = tested on: RD cells (rhabdomyosarcoma cells); assay: percent death of RD cells by flow cytometry; assay type: cell-based
Description: as §4, §2
Referring to FIGS. 29 and 30, RD cells (rhabdomyosarcoma cells—not drug resistant), cultured as described above under “Materials and Methods” were untreated or treated with etomoxir, with 2-deoxy-D-glucose, or with a combination of etomoxir and 2-deoxy-D-glucose, at concentrations indicated in FIG. 29 for 24 hours. Cells were harvested and analyzed by flow cytometry. […] The percent of cell deaths for RD cells after 24 hours was: (a) 31% when untreated, (b) 57% when treated with etomoxir alone, (c) 46% when treated with 2-deoxy-D-glucose alone, and (d) 66% when treated with the combination of etomoxir and 2-deoxy-D-glucose.
Referring to FIGS. 33 and 34, RD cells, cultured as described in Example 22, were untreated or treated with etomoxir, with 2-deoxy-D-glucose, or with a combination of etomoxir and 2-deoxy-D-glucose, at concentrations indicated in FIG. 33 for 48 hours. Cells were harvested and analyzed by flow cytometry. […] The percent of cell deaths for RD cells after 48 hours was: (a) 36% when untreated, (b) 64% when treated with etomoxir alone, (c) 63% when treated with 2-deoxy-D-glucose alone, and (d) 68% when treated with the combination of etomoxir and 2-deoxy-D-glucose.

HL60 MDR tumor = HL60 MDR tumor implanted in nude mice, tumor volume; assay type: in vivo
Excerpt: Tumor implantation. Mice were purchased from the Animal Production Program of National Cancer Institute, Frederick, Md. The animals used were Athymic Ncr-nu/nu (strain code 01B74). HL60 MDR cells were harvested and reconstituted at 1 million cells per 100 microliters of phosphate buffered saline. One million tumor cells per injection site were implanted subcutaneously on two sites of the animal's back. Treatments began at exactly seven days post tumor implantation. Tumor size/volume was monitored twice weekly using measurement calipers, with the formula Tumor Volume=π×(short diameter)^2×(long diameter)/6.
Mice experiments with fatty acid metabolism and glycolytic inhibitors. Fatty acid metabolism inhibitors were exemplified by etomoxir at 200 micrograms/day. Glycolytic inhibitors were exemplified by 2-deoxy-D-glucose at 2.5 mM in 100 microliters daily. The combination was administered daily, etomoxir at 200 micrograms and 2-deoxy-D-glucose at 2.5 mM in 100 microliters. All drugs were administered intra-peritoneally. 5-Fluoro-uracil, at 20 mg per kilogram mouse, was injected intra-peritoneally once a week
HL60 MDR human leukemia cells were cultured and implanted in nude mice as described above under “Materials and Methods”. The mice were given 200 ug of Etomoxir, 2.5 mM 2-Deoxy-D-glucose, or both 200 ug of Etomoxir and 2.5 mM 2-Deoxy-D-glucose given daily by IP injection. Treatment began exactly one week after tumor implantation.

C/C=C/C/C=C/CCC(=O)[C@H]1O[C@H]1C(N)=O [Cerulenin, cerulenin]
cell death seen in microscopy images (HL60 MDR cells [1]): large numbers of cell death
development of lethal cancers (B16F1 melanoma cells [2]; male mice injected with B16F1 cells treated with 25 ug/ml cerulenin 5.0 hrs): did not develop lethal cancers
tumor observation, Day 9 (B16F1 melanoma cells [2]; single mice (#7, #8, #9), 10^6 B16F1 cells treated w/25 ug/ml cerulenin 5.0 hrs, Day 9): no visible sign of tumors
tumor observation, Day 12 (B16F1 melanoma cells [2]; single mice (#7, #8, #9), 10^6 B16F1 cells treated w/25 ug/ml cerulenin 5.0 hrs, Day 12): no visible tumors
tumor observation, Day 13 (B16F1 melanoma cells [2]; single mice (#7, #8, #9), 10^6 B16F1 cells treated w/25 ug/ml cerulenin 5.0 hrs, Day 13): no visible tumors
B16F1 % Death (B16F1 melanoma cells [3]; Table 1; 25 ug/mL Cerulenin; 5.0 Hours): 61%
B16F1 % Death (B16F1 melanoma cells [3]; Table 1; 25 ug/mL Cerulenin; 24 Hours): 90%
B16F1 % Death (B16F1 melanoma cells [3]; Table 2; 25 ug/mL Cerulenin; 5.0 Hours): 67%
B16F1 % Death (B16F1 melanoma cells [3]; Table 2; 25 ug/mL Cerulenin; 24 Hours): 72%
B16F1 % Death (B16F1 melanoma cells [3]; Table 2; 24 Hours; 25 ug/mL Cerulenin): 89%
cell death compared to control and non-multidrug resistant cancer cells (HL60 MDR cells [4]; HL60 MDR, after treatment with cerulenin): greater amounts of cell death
HL60 MDR % Death (HL60 MDR cells [4]; 2.0 Hours): 13%
HL60 MDR % Death (HL60 MDR cells [4]; 24 Hours): 99.6%
L1210 % Death (L1210 cells): 27%
cell death compared to control and non-multidrug resistant cancer cells (L1210 DDP cells; L1210 DDP, after treatment with cerulenin): greater amounts of cell death
L1210 DDP % Death (L1210 DDP cells; 7.0 Hours): 14%
L1210 DDP % Death (L1210 DDP cells; 24 Hours): 92%
HL60 % Death (HL60 cells [5]; 2.0 Hours): 11%
HL60 % Death (HL60 cells [5]; 24 Hours): 44%
cell survival seen in microscopy images (HL60 cells [6]): large numbers of the cells survived

O=CC[C@@H](O)[C@H](O)[C@H](O)CO [2-deoxy-D-glucose]
percent of cell deaths ([7]; 24 hours, concentrations as in FIG. 29): 46%
percent of cell deaths ([7]; 48 hours, concentrations as in FIG. 33): 63%
percent of cell deaths (HL60 MDR cells [4]; HL60 MDR, 24 hours, 2-deoxy-D-glucose at 2.5 mM, etomoxir as in FIG. 27): 16%
percent of cell deaths (HL60 MDR cells [4]; HL60 MDR, 48 hours, concentrations as in FIG. 31): 38%
tumor growth versus control (HL60 MDR tumor; 21 day period, single agent): increase in tumor growth
tumor volume, Day 7 (HL60 MDR tumor; Day 7 after implantation (start of treatment), 200 ug Etomoxir and/or 2.5 mM 2-Deoxy-D-glucose daily IP): 35 mm^3
tumor volume, Day 9 (HL60 MDR tumor; Day 9, 200 ug Etomoxir and/or 2.5 mM 2-Deoxy-D-glucose daily IP): 51.56 mm^3
tumor volume, Day 15 (HL60 MDR tumor; Day 15, 200 ug Etomoxir and/or 2.5 mM 2-Deoxy-D-glucose daily IP): 158.55 mm^3
tumor volume, Day 21 (HL60 MDR tumor; Day 21, 200 ug Etomoxir and/or 2.5 mM 2-Deoxy-D-glucose daily IP): 1,181.61 mm^3
